Test results reported in US12448389B2, “BRM targeting compounds and associated methods of use” (Prelude Therapeutics Incorporated, priority 2020, dated 2025).

Assays:
SMARCA2-HiBiT = biological target: T1, SMARCA2-HiBiT (Homo sapiens, UniProt P51531); assay: SMARCA2 HiBiT degradation assay in HeLa cells; format: cell-based; details: 18 hours incubation; for DC50: read-out: HeLa_HiBit-SM2 DC50; for Dmax: HeLa, read-out: HeLa-HiBit-SM2 Dmax (%)
T1 construct: SMARCA2-HiBiT knock-in Hela monoclonal cell (CS302366); host or cells: HeLa monoclonal knock-in line (CRISPR HiBiT knock-in at the endogenous locus, heterozygous)
Outline: (§1)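 HeLa monoclonal lines with heterozygous HiBiT knock-in were seeded at 2500 cells/well in EMEM with 10% FBS and treated with compound for 18 h at 37 °C. Remaining tagged protein was measured by Nano-Glo HiBiT lytic luminescence after 30–60 min at RT, and values came from curve fitting.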

SMARCA4-HiBiT = biological target: T2, SMARCA4-HiBiT (Homo sapiens, UniProt P51532); assay: SMARCA4 HiBiT degradation assay in HeLa cells; format: cell-based; details: 18 hours incubation; for DC50: read-out: HeLa-HiBit-SM4 DC50; for Dmax: HeLa, read-out: HeLa-HiBit-SM4 Dmax (%)
T2 construct: SMARCA4-HiBiT knock-in Hela monoclonal cell (CS3023226); host or cells: HeLa monoclonal knock-in line (CRISPR HiBiT knock-in at the endogenous locus, heterozygous)
Outline: as §1

T2 sequence (P51532 whole entry): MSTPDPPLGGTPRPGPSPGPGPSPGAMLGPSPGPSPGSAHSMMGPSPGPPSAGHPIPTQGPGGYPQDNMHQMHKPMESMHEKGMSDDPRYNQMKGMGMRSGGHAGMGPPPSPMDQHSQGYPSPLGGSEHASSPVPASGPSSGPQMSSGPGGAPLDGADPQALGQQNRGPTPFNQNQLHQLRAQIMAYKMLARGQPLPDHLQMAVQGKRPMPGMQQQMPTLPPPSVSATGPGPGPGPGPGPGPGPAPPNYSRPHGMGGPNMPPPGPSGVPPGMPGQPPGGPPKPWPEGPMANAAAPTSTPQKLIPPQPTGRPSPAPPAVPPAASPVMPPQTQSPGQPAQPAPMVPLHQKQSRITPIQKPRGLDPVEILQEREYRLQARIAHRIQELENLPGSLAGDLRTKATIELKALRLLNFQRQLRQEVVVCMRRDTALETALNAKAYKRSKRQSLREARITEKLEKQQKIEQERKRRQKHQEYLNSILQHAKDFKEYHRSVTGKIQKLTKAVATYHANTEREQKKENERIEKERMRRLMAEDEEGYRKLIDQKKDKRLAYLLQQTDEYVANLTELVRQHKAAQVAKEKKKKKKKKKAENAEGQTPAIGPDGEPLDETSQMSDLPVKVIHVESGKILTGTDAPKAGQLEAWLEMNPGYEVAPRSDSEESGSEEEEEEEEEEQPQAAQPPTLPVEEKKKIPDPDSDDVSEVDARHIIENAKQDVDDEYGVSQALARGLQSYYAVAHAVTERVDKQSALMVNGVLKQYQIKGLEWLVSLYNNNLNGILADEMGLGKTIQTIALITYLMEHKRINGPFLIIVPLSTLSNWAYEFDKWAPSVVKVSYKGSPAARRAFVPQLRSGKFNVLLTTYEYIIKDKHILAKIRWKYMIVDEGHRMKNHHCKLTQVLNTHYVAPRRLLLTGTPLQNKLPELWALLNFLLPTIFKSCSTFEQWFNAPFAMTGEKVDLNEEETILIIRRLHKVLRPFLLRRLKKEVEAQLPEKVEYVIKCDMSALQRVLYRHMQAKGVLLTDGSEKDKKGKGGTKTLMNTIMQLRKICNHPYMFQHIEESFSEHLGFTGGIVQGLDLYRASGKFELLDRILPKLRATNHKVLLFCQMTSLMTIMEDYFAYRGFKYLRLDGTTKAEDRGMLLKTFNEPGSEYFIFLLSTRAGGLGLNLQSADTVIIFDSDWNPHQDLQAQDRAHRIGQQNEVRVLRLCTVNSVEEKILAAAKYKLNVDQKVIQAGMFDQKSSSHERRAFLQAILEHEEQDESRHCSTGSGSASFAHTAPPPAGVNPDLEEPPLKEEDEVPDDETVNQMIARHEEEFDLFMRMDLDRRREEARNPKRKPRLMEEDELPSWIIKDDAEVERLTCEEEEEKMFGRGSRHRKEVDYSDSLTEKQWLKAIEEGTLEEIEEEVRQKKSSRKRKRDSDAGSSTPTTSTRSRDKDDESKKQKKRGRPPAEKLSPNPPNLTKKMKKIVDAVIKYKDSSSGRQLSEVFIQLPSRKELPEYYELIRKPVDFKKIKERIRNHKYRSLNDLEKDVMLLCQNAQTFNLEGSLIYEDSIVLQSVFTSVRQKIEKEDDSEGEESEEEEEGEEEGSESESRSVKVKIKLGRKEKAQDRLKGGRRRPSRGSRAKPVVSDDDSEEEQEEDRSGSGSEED
T1 sequence (P51531 whole entry): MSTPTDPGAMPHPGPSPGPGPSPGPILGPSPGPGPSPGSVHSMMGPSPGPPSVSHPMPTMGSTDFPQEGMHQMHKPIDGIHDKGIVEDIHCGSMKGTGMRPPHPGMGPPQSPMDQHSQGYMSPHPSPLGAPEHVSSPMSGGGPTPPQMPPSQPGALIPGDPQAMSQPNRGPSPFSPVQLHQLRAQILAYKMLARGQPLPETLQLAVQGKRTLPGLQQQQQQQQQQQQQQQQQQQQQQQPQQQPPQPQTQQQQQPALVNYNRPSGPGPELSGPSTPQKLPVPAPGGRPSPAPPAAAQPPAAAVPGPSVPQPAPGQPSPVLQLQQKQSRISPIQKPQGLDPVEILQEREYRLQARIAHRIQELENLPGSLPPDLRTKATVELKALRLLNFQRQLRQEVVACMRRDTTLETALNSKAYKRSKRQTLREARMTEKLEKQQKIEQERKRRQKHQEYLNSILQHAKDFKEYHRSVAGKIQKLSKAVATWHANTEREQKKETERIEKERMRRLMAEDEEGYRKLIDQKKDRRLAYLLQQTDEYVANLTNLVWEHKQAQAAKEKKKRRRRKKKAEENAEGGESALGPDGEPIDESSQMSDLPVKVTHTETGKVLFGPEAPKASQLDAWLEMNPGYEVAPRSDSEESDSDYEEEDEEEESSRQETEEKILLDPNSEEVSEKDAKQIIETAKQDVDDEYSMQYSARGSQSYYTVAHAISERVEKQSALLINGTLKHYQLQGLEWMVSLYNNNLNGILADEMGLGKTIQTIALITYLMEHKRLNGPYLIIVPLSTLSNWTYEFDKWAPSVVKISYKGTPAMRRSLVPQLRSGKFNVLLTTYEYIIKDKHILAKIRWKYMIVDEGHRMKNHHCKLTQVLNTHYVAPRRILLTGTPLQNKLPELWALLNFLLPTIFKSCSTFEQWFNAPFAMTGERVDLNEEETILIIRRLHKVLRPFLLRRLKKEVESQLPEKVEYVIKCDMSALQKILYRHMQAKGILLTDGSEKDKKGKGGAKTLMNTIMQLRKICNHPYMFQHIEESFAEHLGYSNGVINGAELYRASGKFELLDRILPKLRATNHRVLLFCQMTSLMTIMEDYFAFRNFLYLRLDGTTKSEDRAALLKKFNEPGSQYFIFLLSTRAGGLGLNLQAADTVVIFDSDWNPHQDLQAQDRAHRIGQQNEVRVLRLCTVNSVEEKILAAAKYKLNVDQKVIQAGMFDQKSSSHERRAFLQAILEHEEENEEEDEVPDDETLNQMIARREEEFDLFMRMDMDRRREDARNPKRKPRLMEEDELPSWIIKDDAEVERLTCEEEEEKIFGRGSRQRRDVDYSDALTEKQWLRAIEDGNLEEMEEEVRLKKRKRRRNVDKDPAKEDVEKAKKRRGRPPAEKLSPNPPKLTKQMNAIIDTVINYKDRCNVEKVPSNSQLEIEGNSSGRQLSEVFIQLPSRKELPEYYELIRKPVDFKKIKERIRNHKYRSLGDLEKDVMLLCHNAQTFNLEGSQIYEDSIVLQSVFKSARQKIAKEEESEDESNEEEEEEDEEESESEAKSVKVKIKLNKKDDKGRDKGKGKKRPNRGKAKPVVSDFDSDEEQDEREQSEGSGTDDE

DC50 (SMARCA2-HiBiT)	Dmax (SMARCA2-HiBiT)	DC50 (SMARCA4-HiBiT)	Dmax (SMARCA4-HiBiT)	Compound
< 10 nM	> 85%	< 10 nM	> 85%	O=C1CCC(N2Cc3cc(CN4CCC(CCCN5CCC(N6CCN7c8cc(-c9ccccc9O)nnc8NC[C@H]7C6)CC5)CC4)ccc3C2=O)C(=O)N1 (stereo partly drawn) [Example 65, 3-(5-((4-(3-(4-((S)-2-(2-hydroxyphenyl)-5,6,6a,7,9,10-hexahydro-8H-pyrazino[1′,2′:4,5]pyrazino[2,3-c]pyridazin-8-yl)piperidin-1-yl)propyl)piperidin-1-yl)methyl)-1-oxoisoindolin-2-yl)piperidine-2,6-dione]
< 10 nM	> 85%	< 10 nM	> 85%	O=C1CCC(N2Cc3cc(N4CCC(CN5CCC(CN6CCN7c8cc(-c9ccccc9O)nnc8NC[C@H]7C6)CC5)CC4)c(F)cc3C2=O)C(=O)N1 (stereo partly drawn) [Example 234, 3-(6-fluoro-5-(4-((4-(((S)-2-(2-hydroxyphenyl)-5,6,6a,7,9,1O-hexahydro-8H-pyrazino[1′,2′:4,5]pyrazino[2,3-c]pyridazin-8-yl)methyl)piperidin-1-yl)methyl)piperidin-1-yl)-1-oxoisoindolin-2-yl)piperidine-2,6-dione]
< 10 nM	> 85%	10 to 100 nM	50 to 75%	O=C1CCC(N2C(=O)c3ccc(N4CC[C@H](CN5CCN(C(=O)N6CCN7c8cc(-c9ccccc9O)nnc8NC[C@H]7C6)CC5)[C@@H](F)C4)cc3C2=O)C(=O)N1 (stereo partly drawn) [Example 206, 2-(2,6-dioxopiperidin-3-yl)-5-[(3R,4R)-3-fluoro-4-[[4-[(10S)-4-(2-hydroxyphenyl)-1,5,6,8,12-pentazatricyclo [8.4.0.02,7]tetradeca-2(7),3,5-triene-12-carbonyl]piperazin-1-yl]methyl]piperidin-1-yl]isoindole-1,3-dione]
< 10 nM	> 85%	< 10 nM	> 85%	O=C1CCC(N2Cc3ccc(N4CC(CN5CCC(CN6CCN7c8cc(-c9ccccc9O)nnc8NC[C@H]7C6)CC5)C4)cc3C2=O)C(=O)N1 (stereo partly drawn) [Example 276, 3-(6-(3-((4-(((S)-2-(2-hydroxyphenyl)-5,6,6a,7,9,10-hexahydro-8H-pyrazino[1′,2′:4,5]pyrazino[2,3-c]pyridazin-8-yl)methyl)piperidin-1-yl)methyl)azetidin-1-yl)-1-oxoisoindolin-2-yl) piperidine-2,6-dione]
< 10 nM	> 85%	< 10 nM	> 85%	CCC1Nc2nnc(-c3ccccc3O)cc2N2CCN(CC3CCN(CC4CCN(c5ccc6c(c5)C(=O)N(C5CCC(=O)NC5=O)C6=O)CC4)CC3)CC12 (stereo not shown) [Example 128, 2-(2,6-dioxopiperidin-3-yl)-5-(4-((4-((6-ethyl-2-(2-hydroxyphenyl)-5,6,6a,7,9,10-hexahydro-8H-pyrazino[1′,2′:4,5]pyrazino[2,3-c]pyridazin-8-yl)methyl)piperidin-1-yl)methyl)piperidin-1-yl)isoindoline-1,3-dione]
< 10 nM	> 85%	< 10 nM	50 to 75%	O=C1CCC(N2C(=O)c3ccc(N4CCC(O)(CN5C[C@@H]6[C@@H](CN7CCN8c9cc(-c%10ccccc%10O)nnc9NC[C@H]8C7)[C@@H]6C5)CC4)cc3C2=O)C(=O)N1 (stereo partly drawn) [Example 47, 2-(2,6-dioxopiperidin-3-yl)-5-(4-hydroxy-4-(((1R,5S,6s)-6-(((S)-2-(2-hydroxyphenyl)-5,6,6a,7,9,10-hexahydro-811-pyrazino[1′,2′:4,5]pyrazino[2,3-c]pyridazin-8-yl)methyl)-3-azabicyclo[3.1.0]hexan-3-yl)methyl)piperidin-1-yl) isoindoline-1,3-dione]
< 10 nM	> 85%	10 to 100 nM	> 85%	O=C1CCC(N2Cc3ccc(C4CCN(CCN5CCC(N6CCN7c8cc(-c9ccccc9O)nnc8NC[C@H]7C6)CC5)CC4)cc3C2=O)C(=O)N1 (stereo partly drawn) [Example 118, 3-(6-(1-(2-(4-((S)-2-(2-hydroxyphenyl)-5,6,6a,7,9,10-hexahydro-8H-pyrazino[1′,2′:4,5]pyrazino[2,3-c]pyridazin-8-yl)piperidin-1-yl)ethyl)piperidin-4-yl)-1-oxoisoindolin-2-yl)piperidine-2,6-dione]
< 10 nM	> 85%	< 10 nM	75 to 85%	CC1CN(CC2CCN(c3ccc4c(c3)C(=O)N(C3CCC(=O)NC3=O)C4)CC2)CCN1C(=O)N1CCN2c3cc(-c4ccccc4O)nnc3NC[C@H]2C1 (stereo partly drawn) [Example 104, 3-(6-(4-((4-((S)-2-(2-hydroxyphenyl)-6,6a,7,8,9,10-hexahydro-5H-pyrazino[1′,2′:4,5]pyrazino[2,3-c]pyridazine-8-carbonyl)-3-methylpiperazin-1-yl)methyl)piperidin-1-yl)-1-oxoisoindolin-2-yl)piperidine-2,6-dione]
< 10 nM	> 85%	< 10 nM	> 85%	COC1(CN2C[C@@H]3[C@@H](CN4CCN5c6cc(-c7ccccc7O)nnc6NC[C@H]5C4)[C@@H]3C2)CCN(c2ccc3c(c2)C(=O)N(C2CCC(=O)NC2=O)C3)CC1 (stereo partly drawn) [Example 252, 3-(6-(4-(((1R,5S,6s)-6-(((S)-2-(2-hydroxyphenyl)-5,6,6a,7,9,10-hexahydro-8H-pyrazino[1′,2′:4,5]pyrazino[2,3-c]pyridazin-8-yl)methyl)-3-azabicyclo[3.1.0]hexan-3-yl)methyl)-4-methoxypiperidin-1-yl)-1-oxoisoindolin-2-yl)piperidine-2,6-dione]
< 10 nM	50 to 75%	< 10 nM	50 to 75%	O=C1CCC(N2C(=O)c3ccc(CN4CCC(CN5CCC(CN6CCN7c8cc(-c9ccccc9O)nnc8NC[C@H]7C6)CC5)CC4)cc3C2=O)C(=O)N1 (stereo partly drawn) [Example 187, 2-(2,6-dioxopiperidin-3-yl)-5-[[4-[[4-[[(10S)-4-(2-hydroxyphenyl)-1,5,6,8,12-pentazatricyclo[8.4.0.02,7]tetradeca-2,4,6-trien-12-yl]methyl]piperidin-1-yl]methyl]piperidin-1-yl]methyl]isoindole-1,3-dione]
< 10 nM	> 85%	< 10 nM	> 85%	CC1CC(CN2CCN3c4cc(-c5ccccc5O)nnc4NC[C@H]3C2)CCN1CC1CCN(c2cc3c(cc2F)C(=O)N(C2CCC(=O)NC2=O)C3=O)CC1 (stereo partly drawn) [Example 166, 2-(2,6-dioxopiperidin-3-yl)-5-fluoro-6-[4-[[4-[[(10S)-4-(2-hydroxyphenyl)-1,5,6,8,12-pentazatricyclo[8.4.0.02,7]tetradeca-2,4,6-trien-12-yl]methyl]-2-methylpiperidin-1-yl]methyl]piperidin-1-yl] isoindole-1,3-dione]
< 10 nM	> 85%	< 10 nM	> 85%	O=C1CCC(N2C(=O)c3ccc(N4CCC5(CC4)CC(CN4CCC(CN6CCN7c8cc(-c9ccccc9O)nnc8NC[C@H]7C6)CC4)C5)cc3C2=O)C(=O)N1 (stereo partly drawn) [Example 150, 2-(2,6-dioxopiperidin-3-yl)-5-(2-((4-(((S)-2-(2-hydroxyphenyl)-5,6,6a,7,9,10-hexahydro-8H-pyrazino[1′,2′:4,5]pyrazino[2,3-c]pyridazin-8-yl)methyl)piperidin-1-yl)methyl)-7-azaspiro[3.5]nonan-7-yl)isoindoline-1,3-dione]
< 10 nM	> 85%	< 10 nM	> 85%	CC1CC(CN2CCN3c4cc(-c5ccccc5O)nnc4NC[C@H]3C2)CCN1CC1CCN(c2ccc3c(c2)C(=O)N(C2CCC(=O)NC2=O)C3=O)CC1 (stereo partly drawn) [Example 162, 2-(2,6-dioxopiperidin-3-yl)-5-[4-[[4-[[(10S)-4-(2-hydroxyphenyl)-1,5,6,8,12-pentazatricyclo[8.4.0.02,7]tetradeca-2,4,6-trien-12-yl]methyl]-2-methylpiperidine-1-yl]methyl]piperidin-1-yl] isoindole-1,3-dione]
< 10 nM	> 85%	< 10 nM	> 85%	O=C1CCC(N2C(=O)c3ccc(N4CCC(CN5CCO[C@@H](CN6CCN7c8cc(-c9ccccc9O)nnc8NC[C@H]7C6)C5)CC4)cc3C2=O)C(=O)N1 (stereo partly shown) [Example 74]
< 10 nM	> 85%	< 10 nM	75 to 85%	O=C1CCC(N2C(=O)c3ccc(N4CCCC(N5CCC(CN6CCN7c8cc(-c9ccccc9O)nnc8NC[C@H]7C6)CC5)C4)cc3C2=O)C(=O)N1 (stereo partly drawn) [Example 218, 2-(2,6-dioxopiperidin-3-yl)-5-(4-(((S)-2-(2-hydroxyphenyl)-5,6,6a,7,9,10-hexahydro-8H-pyrazino[1′,2′:4,5]pyrazino[2,3-c]pyridazin-8-yl)methyl)-[1,3′-bipiperidin]-1′-yl) isoindoline-1,3-dione]
10 to 100 nM	50 to 75%	10 to 100 nM	50 to 75%	O=C1CCC(N2Cc3cc(OCCN4CCC(N5CCN6c7cc(-c8ccccc8O)nnc7NC[C@H]6C5)C4)ccc3C2=O)C(=O)N1 (stereo partly drawn) [Example 256, 3-(5-(2-(3-((S)-2-(2-hydroxyphenyl)-5,6,6a,7,9,10-hexahydro-8H-pyrazino[1′,2′:4,5]pyrazino[2,3-c]pyridazin-8-yl)pyrrolidin-1-yl)ethoxy)-1-oxoisoindolin-2-yl)piperidine-2,6-dione]
